Laboratory results as given in ChEMBL document CHEMBL1201862, “PubChem BioAssay data set” (2004).
Active and inactive are the calls of the source.

Legend:
[1] = molecular target: T1, High affinity choline transporter 1 (Homo sapiens, UniProt Q9GZV3); test: CHT inhibitors, dose response, cell-based, 5-point CRC, membrane potential dye (AID 504840); format: functional
T1 sequence (Q9GZV3 whole entry): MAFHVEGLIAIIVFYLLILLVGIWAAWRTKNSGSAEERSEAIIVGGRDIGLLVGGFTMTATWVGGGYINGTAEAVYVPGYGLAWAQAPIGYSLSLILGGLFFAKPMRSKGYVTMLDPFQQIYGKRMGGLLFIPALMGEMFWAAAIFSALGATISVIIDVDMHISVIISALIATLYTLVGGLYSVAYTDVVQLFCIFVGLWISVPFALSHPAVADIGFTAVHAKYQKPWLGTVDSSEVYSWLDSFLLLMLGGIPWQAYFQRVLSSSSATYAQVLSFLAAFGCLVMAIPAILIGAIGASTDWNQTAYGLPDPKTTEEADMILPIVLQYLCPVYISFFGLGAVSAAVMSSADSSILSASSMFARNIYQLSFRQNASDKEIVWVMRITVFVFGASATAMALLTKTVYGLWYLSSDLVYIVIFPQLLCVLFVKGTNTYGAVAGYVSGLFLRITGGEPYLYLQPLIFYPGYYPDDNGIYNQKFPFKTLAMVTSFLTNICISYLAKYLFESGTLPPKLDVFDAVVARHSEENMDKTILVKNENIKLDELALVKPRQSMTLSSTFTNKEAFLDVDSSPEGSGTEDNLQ

[2] = molecular target: T1, High affinity choline transporter 1; test: CHT inhibitors, dose response, cell-based, 10-point CRC, membrane potential dye (AID 588401); format: functional;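 note: membrane potential dye fluorescence of choline-evoked depolarization via CHT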
Prothrombin = Prothrombin (Bos taurus, UniProt P00735); test: thrombin inhibition, dose response, biochemical, fluorescence polarization, uHTS hits (AID 602369); format: functional
[3] = molecular target: 72 kDa type IV collagenase (Homo sapiens, UniProt P08253); test: Dose Response validation of uHTS RPN11 inhibitor hits using a MMP-2 Fluorescence assay.; format: functional
[4] = molecular target: 26S proteasome non-ATPase regulatory subunit 14 (Homo sapiens, UniProt O00487); test: inhibition of proteasome subunit RPN11 – biochemical, fluorescence polarization, uHTS hits, confirmation (AID 602368); format: functional
[5] = AlphaScreen signal interference compounds, dose response, artefact control for ARNT-TACC3 interaction inhibitor project, biochemical, luminescence, cherry-pick (AID 651705); format: functional;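 note: AlphaScreen bead proximity signal that flags compounds interfering with the detection technology; potency reflects signal decrease which marks the compound as an assay artifact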
[6] = molecular target: DNA (cytosine-5)-methyltransferase 1 (Homo sapiens, UniProt P26358); test: DNMT1 methyltransferase inhibitors, confirmation, biochemical, fluorescent molecular beacon (AID 602386); format: functional
[7] = molecular target: T2, Carboxy-terminal domain RNA polymerase II polypeptide A small phosphatase 1 (Homo sapiens, UniProt Q9GZU7); test: inhibitors of CTDSP1, concentration-response testing, biochemical assay, absorbance-based, actives from ultra-high-throughput screening (AID 540297); format: functional
T2 sequence (Q9GZU7 whole entry): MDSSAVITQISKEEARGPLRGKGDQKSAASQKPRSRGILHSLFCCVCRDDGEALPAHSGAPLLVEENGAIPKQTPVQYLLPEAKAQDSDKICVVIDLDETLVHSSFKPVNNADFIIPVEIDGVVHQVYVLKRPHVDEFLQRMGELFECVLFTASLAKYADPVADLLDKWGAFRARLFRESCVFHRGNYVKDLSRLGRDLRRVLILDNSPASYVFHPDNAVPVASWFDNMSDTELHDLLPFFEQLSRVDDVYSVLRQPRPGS

Estrogen receptor beta = Estrogen receptor beta (Homo sapiens, UniProt Q92731); test: ERβ–SRC-3 coactivator interaction inhibitors, confirmation, orthogonal assay, biochemical, ELISA, streptavidin-HRP readout (AID 1060)
[8] = Shn3 3'UTR reporter inhibitors, dose response, cell-based, Clone20 osteoblasts, firefly luciferase, cherry-picked (AID 624132); format: functional;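 note: firefly luciferase luminescence from reporter carrying the Shn3 3'UTR in osteoblasts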
Fatty acid synthase [9] = molecular target: T3, Fatty acid synthase (Homo sapiens, UniProt P49327); test: FAS thioesterase domain inhibitors, dose response, biochemical, kinetic fluorescence intensity (AID 624326); format: functional;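 note: rate of fluorescence rise from hydrolysis of a fluorogenic O-methyl fluorescein ester substrate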
[10] = growth suppression of beta-catenin-knockout colon cells, dose response, cell-based, HCT116, human colon tumor (AID 1045); format: functional;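 note: HCT116 colon tumor cells with beta catenin knocked out; cells exposed to compound for 60 hours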
[11] = HepG2 cell cytotoxicity, dose response, cytotoxicity control for Shn3 inhibitor project, CellTiter-Glo, cherry-picked (AID 624134); format: functional, cell-based
[12] = growth suppression of PTEN-null colon cells, dose response, cell-based, HCT116 PTEN knockout (AID 1047); format: functional;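 note: HCT116 colon tumor cells with PTEN knocked out; cells exposed to compound for 60 hours before readout; potency for loss of cell viability measured by luminescence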
[13] = control 3'UTR Renilla luciferase suppression, dose response, counter-screen for Shn3 inhibitor project, cell-based, Clone20-Shn3RL, cherry-picked (AID 624133); format: functional
Fatty acid synthase [14] = molecular target: T3, Fatty acid synthase; test: FAS thioesterase domain inhibitors, dose response, biochemical, endpoint fluorescence intensity, uHTS hits (AID 624327); format: functional;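 note: fluorescence from hydrolysis of an O-methyl fluorescein acyl ester substrate by the enzyme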
Protein Wnt-3a = Protein Wnt-3a (Mus musculus, UniProt P27467); test: Wnt3a-driven reporter signaling inhibition, dose response, selectivity assay for Gli-SUFU antagonist project, Wnt-LIGHT cells, luminescence (AID 651570); format: functional; settings: read-out: IC50_Mean;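 note: Wnt-LIGHT reporter cells stimulated with conditioned medium from Wnt3a-producing cells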
[15] = NIH-3T3 fibroblast cytotoxicity, dose response, cytotoxicity control for antifungal single agent project, cell-based, Alamar Blue, dry powder (AID 602188); format: functional
[16] = molecular target: T4, Apoptotic protease-activating factor 1 (Homo sapiens, UniProt O14727); test: SAR analysis of small molecule Activators of Apaf-1 in a Fluorescent assay.; format: functional; settings: read-out: EC50_Mean;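 note: caspase-3 cleavage of fluorogenic Rh110 DEVD substrate downstream of apoptosome activation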
T4 sequence (O14727 whole entry): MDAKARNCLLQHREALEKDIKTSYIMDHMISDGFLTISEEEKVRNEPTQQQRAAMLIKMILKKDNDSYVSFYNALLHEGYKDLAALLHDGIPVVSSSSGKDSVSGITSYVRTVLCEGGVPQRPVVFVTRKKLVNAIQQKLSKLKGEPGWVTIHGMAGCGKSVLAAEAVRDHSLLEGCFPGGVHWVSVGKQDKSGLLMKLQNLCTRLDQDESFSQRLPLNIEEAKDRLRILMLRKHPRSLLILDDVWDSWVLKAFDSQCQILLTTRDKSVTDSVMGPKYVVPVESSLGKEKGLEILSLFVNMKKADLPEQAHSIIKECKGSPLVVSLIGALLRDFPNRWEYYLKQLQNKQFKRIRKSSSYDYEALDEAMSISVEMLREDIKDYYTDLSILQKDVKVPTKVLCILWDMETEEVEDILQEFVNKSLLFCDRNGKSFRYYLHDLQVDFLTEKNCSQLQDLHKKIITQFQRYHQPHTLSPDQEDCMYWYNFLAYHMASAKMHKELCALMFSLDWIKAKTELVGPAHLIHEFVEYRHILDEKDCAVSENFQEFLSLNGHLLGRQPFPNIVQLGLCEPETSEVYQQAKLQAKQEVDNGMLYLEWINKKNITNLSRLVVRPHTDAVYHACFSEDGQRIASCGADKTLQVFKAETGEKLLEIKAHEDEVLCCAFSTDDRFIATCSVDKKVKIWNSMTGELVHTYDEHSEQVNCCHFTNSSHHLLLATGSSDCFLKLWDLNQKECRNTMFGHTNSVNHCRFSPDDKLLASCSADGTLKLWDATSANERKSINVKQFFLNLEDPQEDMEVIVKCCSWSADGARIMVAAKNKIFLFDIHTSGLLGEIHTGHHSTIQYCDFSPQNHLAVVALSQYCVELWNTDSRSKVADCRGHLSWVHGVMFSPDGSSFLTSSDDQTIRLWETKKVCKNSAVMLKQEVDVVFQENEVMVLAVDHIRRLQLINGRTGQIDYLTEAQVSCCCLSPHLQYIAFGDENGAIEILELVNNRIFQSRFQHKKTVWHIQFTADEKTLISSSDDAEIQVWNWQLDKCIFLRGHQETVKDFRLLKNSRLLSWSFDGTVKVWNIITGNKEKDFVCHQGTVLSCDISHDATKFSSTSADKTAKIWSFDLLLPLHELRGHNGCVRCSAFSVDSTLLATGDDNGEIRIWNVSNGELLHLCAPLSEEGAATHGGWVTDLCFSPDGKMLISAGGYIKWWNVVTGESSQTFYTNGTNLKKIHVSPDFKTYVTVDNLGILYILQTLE

[17] = molecular target: Hepatocyte nuclear factor 4-alpha (Homo sapiens, UniProt P41235); format: functional, cell-based;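 note: biochemical luminescence-based dose-response counterscreen measuring inhibition of HNF4 dimerization, run alongside a screen for blockers of ABHD5–perilipin-5 interaction; split luciferase complementation of HNF4 fusion proteins in cell lysate measuring dimerization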
[18] = molecular target: T5, Rac GTPase-activating protein 1 (Homo sapiens, UniProt Q9H0H5); test: MgcRacGAP GTPase-activating activity inhibitors, confirmation, biochemical, ADP Hunter fluorescence, primary and confirmatory (AID 624330); format: functional
T5 sequence (Q9H0H5 whole entry): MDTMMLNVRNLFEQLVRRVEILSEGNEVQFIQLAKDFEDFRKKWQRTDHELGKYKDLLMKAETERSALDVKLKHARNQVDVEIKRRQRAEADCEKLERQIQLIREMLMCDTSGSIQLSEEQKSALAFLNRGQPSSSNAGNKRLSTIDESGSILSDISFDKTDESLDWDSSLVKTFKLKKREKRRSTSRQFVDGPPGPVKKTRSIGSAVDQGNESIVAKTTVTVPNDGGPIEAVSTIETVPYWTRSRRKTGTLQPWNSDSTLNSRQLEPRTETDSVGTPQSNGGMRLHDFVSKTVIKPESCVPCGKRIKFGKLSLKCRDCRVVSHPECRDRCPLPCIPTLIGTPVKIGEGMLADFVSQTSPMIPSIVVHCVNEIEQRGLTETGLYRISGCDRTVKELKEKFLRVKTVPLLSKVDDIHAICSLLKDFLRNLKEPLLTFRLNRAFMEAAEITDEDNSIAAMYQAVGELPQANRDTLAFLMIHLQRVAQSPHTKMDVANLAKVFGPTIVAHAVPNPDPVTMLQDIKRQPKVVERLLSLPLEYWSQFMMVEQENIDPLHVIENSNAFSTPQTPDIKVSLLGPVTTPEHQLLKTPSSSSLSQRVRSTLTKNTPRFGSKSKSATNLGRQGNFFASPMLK

[19] = molecular target: T6, DNA repair protein RAD52 homolog (Homo sapiens, UniProt P43351); format: functional, biochemical
T6 sequence (P43351 whole entry): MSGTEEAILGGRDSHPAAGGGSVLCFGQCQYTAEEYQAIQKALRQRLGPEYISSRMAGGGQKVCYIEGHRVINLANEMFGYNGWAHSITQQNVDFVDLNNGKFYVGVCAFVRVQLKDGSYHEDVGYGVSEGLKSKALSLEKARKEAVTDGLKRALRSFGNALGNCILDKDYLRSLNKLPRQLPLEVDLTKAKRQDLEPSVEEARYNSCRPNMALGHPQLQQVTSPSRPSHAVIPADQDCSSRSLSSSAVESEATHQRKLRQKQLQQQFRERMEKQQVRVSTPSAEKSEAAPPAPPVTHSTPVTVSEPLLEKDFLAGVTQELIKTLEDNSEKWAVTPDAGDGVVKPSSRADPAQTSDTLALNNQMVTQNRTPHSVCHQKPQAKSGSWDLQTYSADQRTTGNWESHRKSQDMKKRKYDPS

[20] = molecular target: DNA repair and recombination protein RAD54-like (Homo sapiens, UniProt Q92698); test: inhibitors of human RAD54 branch migration, confirmation, biochemical, fluorescence, cherry-picked samples, dose series (AID 651657); format: functional
[21] = HeLa 4N DNA content increase, dose response, cell-based, IC50 (AID 1117351); format: functional
[22] = HeLa 2N DNA content increase, dose response, cell-based, IC50 (AID 1117349); format: functional

Sequence of 72 kDa type IV collagenase (P08253 whole entry): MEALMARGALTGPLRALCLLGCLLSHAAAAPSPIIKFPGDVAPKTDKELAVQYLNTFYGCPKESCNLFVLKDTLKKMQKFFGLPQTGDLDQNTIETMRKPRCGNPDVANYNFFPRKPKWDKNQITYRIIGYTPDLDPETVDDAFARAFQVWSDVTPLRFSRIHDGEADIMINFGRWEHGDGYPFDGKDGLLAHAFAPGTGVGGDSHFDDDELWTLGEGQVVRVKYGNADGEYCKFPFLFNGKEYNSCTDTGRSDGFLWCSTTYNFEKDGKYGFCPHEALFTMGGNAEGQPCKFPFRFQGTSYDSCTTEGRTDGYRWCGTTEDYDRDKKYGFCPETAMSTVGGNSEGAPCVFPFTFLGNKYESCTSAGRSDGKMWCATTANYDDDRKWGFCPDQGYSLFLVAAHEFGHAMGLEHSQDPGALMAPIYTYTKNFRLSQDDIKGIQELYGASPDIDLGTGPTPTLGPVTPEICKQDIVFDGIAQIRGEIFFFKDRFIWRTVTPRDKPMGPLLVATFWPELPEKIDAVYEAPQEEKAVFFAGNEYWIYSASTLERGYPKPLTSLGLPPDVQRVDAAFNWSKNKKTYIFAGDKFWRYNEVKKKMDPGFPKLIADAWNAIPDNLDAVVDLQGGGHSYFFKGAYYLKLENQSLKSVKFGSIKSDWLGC
T3 sequence (P49327 whole entry, the tested form may be a part): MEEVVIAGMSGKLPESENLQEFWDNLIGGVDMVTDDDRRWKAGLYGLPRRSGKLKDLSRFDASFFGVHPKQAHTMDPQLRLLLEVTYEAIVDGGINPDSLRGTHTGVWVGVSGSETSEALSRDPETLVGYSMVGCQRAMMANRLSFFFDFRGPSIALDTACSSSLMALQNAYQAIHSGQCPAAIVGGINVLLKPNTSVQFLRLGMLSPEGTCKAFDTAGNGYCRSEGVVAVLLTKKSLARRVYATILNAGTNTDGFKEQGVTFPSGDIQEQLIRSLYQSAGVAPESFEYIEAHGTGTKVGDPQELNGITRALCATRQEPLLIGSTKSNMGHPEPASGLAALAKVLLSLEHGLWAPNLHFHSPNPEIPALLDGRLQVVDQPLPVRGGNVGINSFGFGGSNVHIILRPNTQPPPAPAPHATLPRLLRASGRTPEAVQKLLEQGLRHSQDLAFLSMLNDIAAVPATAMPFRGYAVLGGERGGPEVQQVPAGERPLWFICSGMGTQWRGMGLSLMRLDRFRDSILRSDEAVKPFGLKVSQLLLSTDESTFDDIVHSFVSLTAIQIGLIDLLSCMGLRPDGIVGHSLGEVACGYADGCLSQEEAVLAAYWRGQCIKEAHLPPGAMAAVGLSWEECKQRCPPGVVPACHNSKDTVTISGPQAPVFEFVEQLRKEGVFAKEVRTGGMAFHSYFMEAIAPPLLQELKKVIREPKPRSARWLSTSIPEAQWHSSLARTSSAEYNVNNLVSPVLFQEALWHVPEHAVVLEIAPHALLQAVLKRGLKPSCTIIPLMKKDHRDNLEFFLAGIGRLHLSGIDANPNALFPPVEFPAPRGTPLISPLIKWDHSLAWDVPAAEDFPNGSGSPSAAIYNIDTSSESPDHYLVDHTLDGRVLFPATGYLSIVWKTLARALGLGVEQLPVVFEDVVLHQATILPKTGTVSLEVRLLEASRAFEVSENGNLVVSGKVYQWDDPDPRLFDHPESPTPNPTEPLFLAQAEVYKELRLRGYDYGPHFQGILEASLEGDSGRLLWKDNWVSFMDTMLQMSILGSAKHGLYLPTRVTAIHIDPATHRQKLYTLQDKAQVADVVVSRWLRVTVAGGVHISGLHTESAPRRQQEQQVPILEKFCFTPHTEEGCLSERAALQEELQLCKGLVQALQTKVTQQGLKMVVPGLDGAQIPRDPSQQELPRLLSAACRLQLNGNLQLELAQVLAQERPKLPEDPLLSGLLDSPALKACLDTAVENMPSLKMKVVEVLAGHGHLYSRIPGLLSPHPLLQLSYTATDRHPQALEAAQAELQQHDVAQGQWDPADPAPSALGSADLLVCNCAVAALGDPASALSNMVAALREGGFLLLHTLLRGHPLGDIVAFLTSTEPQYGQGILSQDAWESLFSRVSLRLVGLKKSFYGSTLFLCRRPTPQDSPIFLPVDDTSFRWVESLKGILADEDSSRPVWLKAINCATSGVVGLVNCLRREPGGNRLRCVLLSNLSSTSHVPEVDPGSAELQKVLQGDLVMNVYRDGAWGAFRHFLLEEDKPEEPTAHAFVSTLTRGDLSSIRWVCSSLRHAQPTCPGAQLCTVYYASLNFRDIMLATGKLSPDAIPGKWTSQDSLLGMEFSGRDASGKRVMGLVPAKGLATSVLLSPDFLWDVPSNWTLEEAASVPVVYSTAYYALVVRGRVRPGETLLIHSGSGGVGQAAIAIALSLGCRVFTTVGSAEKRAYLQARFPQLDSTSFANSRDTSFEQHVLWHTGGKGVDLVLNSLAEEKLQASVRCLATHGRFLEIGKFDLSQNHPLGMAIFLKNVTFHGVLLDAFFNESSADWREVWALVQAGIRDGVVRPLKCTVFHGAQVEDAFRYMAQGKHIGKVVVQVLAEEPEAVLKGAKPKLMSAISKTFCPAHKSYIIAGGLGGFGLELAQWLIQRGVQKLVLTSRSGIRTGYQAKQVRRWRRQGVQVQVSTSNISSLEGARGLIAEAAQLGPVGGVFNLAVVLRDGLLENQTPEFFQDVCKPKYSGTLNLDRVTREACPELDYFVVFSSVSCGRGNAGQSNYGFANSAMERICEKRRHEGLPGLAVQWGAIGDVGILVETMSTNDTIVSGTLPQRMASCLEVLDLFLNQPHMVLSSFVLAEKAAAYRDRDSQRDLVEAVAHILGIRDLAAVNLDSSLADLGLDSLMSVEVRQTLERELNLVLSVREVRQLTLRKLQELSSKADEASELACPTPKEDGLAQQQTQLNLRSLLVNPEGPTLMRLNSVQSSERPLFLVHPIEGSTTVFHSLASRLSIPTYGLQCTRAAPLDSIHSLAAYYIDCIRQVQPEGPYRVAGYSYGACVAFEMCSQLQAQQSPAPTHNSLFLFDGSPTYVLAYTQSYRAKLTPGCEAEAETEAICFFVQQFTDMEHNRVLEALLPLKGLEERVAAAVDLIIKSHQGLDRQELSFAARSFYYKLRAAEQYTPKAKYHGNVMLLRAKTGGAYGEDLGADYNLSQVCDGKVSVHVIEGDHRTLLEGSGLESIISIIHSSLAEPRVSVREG
Sequence of 26S proteasome non-ATPase regulatory subunit 14 (O00487 whole entry): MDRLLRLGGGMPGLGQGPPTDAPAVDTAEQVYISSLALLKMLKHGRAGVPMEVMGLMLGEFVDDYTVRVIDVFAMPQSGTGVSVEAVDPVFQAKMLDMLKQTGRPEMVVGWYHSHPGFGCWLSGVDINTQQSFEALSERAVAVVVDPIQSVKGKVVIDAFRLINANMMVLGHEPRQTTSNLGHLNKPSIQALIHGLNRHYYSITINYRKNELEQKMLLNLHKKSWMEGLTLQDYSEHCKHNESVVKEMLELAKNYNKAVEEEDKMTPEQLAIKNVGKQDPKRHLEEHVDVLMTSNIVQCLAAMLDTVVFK
Sequence of Protein Wnt-3a (P27467 whole entry): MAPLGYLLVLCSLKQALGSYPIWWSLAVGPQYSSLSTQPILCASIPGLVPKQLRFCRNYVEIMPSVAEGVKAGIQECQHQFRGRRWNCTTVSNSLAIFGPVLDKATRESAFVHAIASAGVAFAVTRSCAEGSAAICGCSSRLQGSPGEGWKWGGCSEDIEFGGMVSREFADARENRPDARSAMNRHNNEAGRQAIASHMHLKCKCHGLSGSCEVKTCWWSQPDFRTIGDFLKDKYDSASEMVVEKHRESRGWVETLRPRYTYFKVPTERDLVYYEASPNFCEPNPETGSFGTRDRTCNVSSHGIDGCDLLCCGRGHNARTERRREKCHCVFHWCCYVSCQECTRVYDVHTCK
Sequence of DNA repair and recombination protein RAD54-like (Q92698 whole entry): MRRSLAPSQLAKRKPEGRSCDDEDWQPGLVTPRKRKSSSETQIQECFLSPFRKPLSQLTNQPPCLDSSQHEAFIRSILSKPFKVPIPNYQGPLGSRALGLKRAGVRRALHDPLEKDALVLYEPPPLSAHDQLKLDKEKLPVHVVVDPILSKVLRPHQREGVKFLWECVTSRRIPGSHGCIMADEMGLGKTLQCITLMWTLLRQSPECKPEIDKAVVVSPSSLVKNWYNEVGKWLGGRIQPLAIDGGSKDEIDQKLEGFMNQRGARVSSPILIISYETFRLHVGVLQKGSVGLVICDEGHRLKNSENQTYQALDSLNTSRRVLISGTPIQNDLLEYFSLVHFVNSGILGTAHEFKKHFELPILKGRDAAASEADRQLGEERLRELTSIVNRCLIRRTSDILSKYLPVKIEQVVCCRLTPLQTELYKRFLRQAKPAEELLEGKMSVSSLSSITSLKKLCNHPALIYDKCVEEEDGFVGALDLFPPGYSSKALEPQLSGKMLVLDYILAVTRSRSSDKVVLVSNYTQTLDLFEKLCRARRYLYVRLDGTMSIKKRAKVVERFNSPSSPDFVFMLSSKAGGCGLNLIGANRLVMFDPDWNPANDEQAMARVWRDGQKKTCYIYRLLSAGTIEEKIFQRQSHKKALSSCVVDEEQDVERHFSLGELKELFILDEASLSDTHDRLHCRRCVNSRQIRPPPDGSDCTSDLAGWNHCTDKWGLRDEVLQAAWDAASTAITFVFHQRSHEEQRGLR
Sequence of Hepatocyte nuclear factor 4-alpha (P41235 whole entry, the tested form may be a part): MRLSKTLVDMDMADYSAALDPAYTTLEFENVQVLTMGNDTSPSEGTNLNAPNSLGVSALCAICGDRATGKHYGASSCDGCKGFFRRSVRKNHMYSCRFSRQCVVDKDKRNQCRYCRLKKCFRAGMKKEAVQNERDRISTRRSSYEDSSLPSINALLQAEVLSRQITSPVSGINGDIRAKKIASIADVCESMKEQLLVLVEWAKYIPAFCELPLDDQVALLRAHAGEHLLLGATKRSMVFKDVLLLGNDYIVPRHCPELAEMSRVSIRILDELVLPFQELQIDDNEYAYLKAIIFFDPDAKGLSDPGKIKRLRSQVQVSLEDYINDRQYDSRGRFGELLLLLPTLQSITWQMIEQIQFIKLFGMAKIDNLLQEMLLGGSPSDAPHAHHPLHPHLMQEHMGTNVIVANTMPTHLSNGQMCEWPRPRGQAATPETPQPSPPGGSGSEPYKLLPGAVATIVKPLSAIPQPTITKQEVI

With CCCC(=O)NC(=S)Nc1cccc(NC(=O)c2ccccc2Cl)c1 the IC50 [1] was 10.3 µM (active) and the IC50 [2] was 6.96 µM (active).
With CCC(C)Sc1ccc([C@@H]2[C@H]3C(=O)N(CC)C(=O)[C@H]3[C@]3(C(=O)OC)CCCCN23)cc1 (stereo not given in full) the IC50 (Prothrombin) was 47.8 µM (active), the IC50 [3] was > 100 µM (inactive) and the IC50 [4] was 69 µM (active).
With CC(=O)[C@H]1[C@@H]2C(=O)N(c3cccc(Cl)c3)C(=O)[C@@H]2[C@H]2c3ccccc3C=CN21 the AC50 [5] was 122 µM (active).
For Cc1ccc(C(=O)O)cc1-c1ccc(/C=C2/NC(=O)N(c3ccccc3)C2=O)o1, the IC50 (Prothrombin) was 33.9 µM (active), the IC50 [6] was 11 µM (active) and the IC50 [7] was 4.1 µM (active). For the same molecule, the IC50 [3] was 29.3 µM (active), the IC50 [4] was 16.3 µM (active) and the IC50 (Estrogen receptor beta) was > 50 µM (not active).
In the case of CCCCn1c(CN2CCN(c3ccccc3)CC2)nc2c1c(=O)n(C)c(=O)n2C, the AC50 [8] was 2.05 µM (active), the IC50 [1] was 4.27 µM (active) and the IC50 (Fatty acid synthase [9]) was 21.5 µM (inactive). For the same molecule, the EC50 [10] was 21.9 µM (active), the AC50 [11] was 6.34 µM (active) and the EC50 [12] was 38.9 µM (active). For the same molecule, the IC50 [2] was 1.96 µM (active), the AC50 [13] was 1.27 µM (active) and the IC50 (Fatty acid synthase [14]) was 15.3 µM (active).
With O=C(N[C@@H]1C/C=C\C[C@H](CC(=O)N(CCO)Cc2ccccc2)C(=O)N[C@@H](Cc2c[nH]c3ccccc23)COC1=O)OCC1c2ccccc2-c2ccccc21 the IC50 (Protein Wnt-3a) was 8.54 µM (active).
For Oc1c(C(c2ccc(Cl)cc2)N2CCCC2)ccc2cccnc12 (stereo not given), the AC50 [15] was 1.71 µM (active).
For O=C(O)c1coc(-c2cc3ccccc3s2)n1, the EC50 [16] was > 100 µM (inactive).
In the case of CC1(C)C2CCC(CN=C(N)CSS(=O)(=O)O)C1C2 (stereo not given), the IC50 [17] was 4.45 µM (active) and the IC50 [18] was 65.3 µM (active).
In the case of CCN(CC)CCNc1ccc(CO)c2sc3ccccc3c(=O)c12 [HYCANTHONE], the AC50 [19] was 9.33 µM (active), the AC50 [20] was 6.95 µM (active) and the IC50 [21] was > 10 µM (inactive). The IC50 [22] was 5.68 µM (inactive).
